Source: ChEMBL document CHEMBL1201862, “PubChem BioAssay data set” (2004)
Values belong to the compound of their own block, whether it stands above or below them. Activity calls are given as the source filed them.

Columns and labels:
INS1 = test: beta cell apoptosis inhibitors, cytokine rescue, dose response, luminescence, retest (AID 449756); assay type: functional, cell-based; conditions: Rattus norvegicus;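 also: cell death triggered by IL-1 beta plus TNF-alpha plus IFN-gamma mixture; protective hits raise ATP signal compared with cytokine alone wells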
[1] = molecular target: T1, Zinc finger protein mex-5 (Caenorhabditis elegans, UniProt Q9XUB2); test: MEX-5/TCR-2 RNA interaction inhibitors, dose response, biochemical, C. elegans, fluorescence polarization (AID 1960)
T1 sequence (Q9XUB2 whole entry): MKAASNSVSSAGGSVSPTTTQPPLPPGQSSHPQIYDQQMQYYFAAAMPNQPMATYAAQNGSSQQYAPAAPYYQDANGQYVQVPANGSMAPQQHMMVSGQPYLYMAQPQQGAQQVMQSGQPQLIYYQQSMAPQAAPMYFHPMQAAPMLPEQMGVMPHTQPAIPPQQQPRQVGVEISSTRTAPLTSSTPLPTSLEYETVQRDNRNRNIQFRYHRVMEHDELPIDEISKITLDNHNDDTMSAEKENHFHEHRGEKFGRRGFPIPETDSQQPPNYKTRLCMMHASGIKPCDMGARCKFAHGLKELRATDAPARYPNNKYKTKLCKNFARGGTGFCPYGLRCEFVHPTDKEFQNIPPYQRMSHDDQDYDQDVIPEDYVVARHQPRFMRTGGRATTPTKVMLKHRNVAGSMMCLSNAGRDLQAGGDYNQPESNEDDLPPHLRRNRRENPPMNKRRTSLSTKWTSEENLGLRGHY

ORF 73 = ORF 73 (Human herpesvirus 8, UniProt O40947); test: inhibitors of C-LANA binding to LBS DNA, dose response, biochemical, fluorescence polarization, cherry-picked samples (AID 504725); set-up: species or system Human gammaherpesvirus 8;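 also: fluorescence polarization of a labeled DNA duplex reporting LANA DNA binding; potency is for inhibitors that block LANA binding to the DNA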
[2] = molecular target: T2, Dual specificity protein phosphatase 6 (Rattus norvegicus, UniProt Q64346); assay type: functional;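 also: confirmatory in vitro dose-response testing of MKP-3 inhibition; recombinant His-tagged MKP-3 made in E. coli BL21 with OMFP substrate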
T2 sequence (Q64346 whole entry): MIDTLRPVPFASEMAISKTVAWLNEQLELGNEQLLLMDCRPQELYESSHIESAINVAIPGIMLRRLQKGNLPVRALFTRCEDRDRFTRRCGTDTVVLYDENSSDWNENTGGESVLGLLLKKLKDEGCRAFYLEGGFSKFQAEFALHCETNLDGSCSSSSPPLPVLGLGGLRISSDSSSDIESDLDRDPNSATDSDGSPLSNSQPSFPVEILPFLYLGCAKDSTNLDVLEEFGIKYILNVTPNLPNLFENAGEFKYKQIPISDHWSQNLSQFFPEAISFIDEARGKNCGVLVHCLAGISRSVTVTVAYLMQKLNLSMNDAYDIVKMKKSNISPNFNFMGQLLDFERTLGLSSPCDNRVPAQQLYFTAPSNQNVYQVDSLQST

Caspase-3 = molecular target: T3, Caspase-3 (Homo sapiens, UniProt P42574); test: SAR Analysis of small molecule inhibitors of Sentrin-specific proteases (SENPs) using a Caspase-3 Selectivity assay. [Related pubchem assays (depositor defined):AID2540, AID2599, AID434973, AID489001]; assay type: functional
T3 sequence (P42574 whole entry): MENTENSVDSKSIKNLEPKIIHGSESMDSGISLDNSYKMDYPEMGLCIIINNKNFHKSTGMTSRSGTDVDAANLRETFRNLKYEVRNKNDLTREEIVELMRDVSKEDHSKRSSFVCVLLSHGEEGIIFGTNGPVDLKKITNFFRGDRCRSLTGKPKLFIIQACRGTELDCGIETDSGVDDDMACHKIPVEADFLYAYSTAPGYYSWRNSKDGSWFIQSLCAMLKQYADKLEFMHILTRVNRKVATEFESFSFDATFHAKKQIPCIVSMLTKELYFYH

Exodeoxyribonuclease V = Exodeoxyribonuclease V (Escherichia coli (strain K12), UniProt P04993+P07648+P08394); test: E. coli RecBCD inhibitors, dose response, counter-screen for AddAB inhibitor project, absorbance, V66 E. coli, mutant T4 phage (AID 492957); assay type: functional, cell-based, Escherichia coli str. K-12 substr. MG1655
[3] = molecular target: Serine/threonine-protein kinase PLK4 (Homo sapiens, UniProt O00444); assay type: functional;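 also: PLK4 measured as one member of a kinome-wide kinase profiling panel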
[4] = molecular target: Serine/threonine-protein kinase 17A (Homo sapiens, UniProt Q9UEE5); assay type: functional
SRSF protein kinase 1 = SRSF protein kinase 1 (Homo sapiens, UniProt Q96SB4); assay type: functional;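 also: measured as one member of a kinome-wide kinase profiling panel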
[5] = molecular target: MAP kinase-activated protein kinase 5 (Homo sapiens, UniProt Q8IW41); assay type: functional;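 also: measured as one member of a kinome panel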
[6] = molecular target: Fibroblast growth factor receptor 1 (Homo sapiens, UniProt P11362); assay type: functional
[7] = molecular target: Tyrosine-protein kinase JAK3 (Homo sapiens, UniProt P52333); assay type: functional
[8] = molecular target: Tyrosine-protein kinase Lyn (Homo sapiens, UniProt P07948); assay type: functional;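 also: lyn as one member of a kinase panel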
[9] = molecular target: Serine/threonine-protein kinase TAO1 (Homo sapiens, UniProt Q7L7X3); assay type: functional
[10] = molecular target: Proto-oncogene tyrosine-protein kinase ROS (Homo sapiens, UniProt P08922); assay type: functional;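 also: ROS1 tested as one member of a kinome-wide kinase panel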
[11] = molecular target: MAP/microtubule affinity-regulating kinase 3 (Homo sapiens, UniProt P27448); assay type: functional;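 also: MARK3 affinity measured as one member of a kinome panel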
[12] = molecular target: High affinity nerve growth factor receptor (Homo sapiens, UniProt P04629); assay type: functional;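 also: NTRK1 tested as one member of a kinome-wide profiling panel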
Insulin receptor = Insulin receptor (Homo sapiens, UniProt P06213); assay type: functional;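 also: insulin receptor kinase tested as one member of a kinome-wide kinase panel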
[13] = molecular target: Protein kinase C gamma type (Homo sapiens, UniProt P05129); assay type: functional
[14] = molecular target: Receptor tyrosine-protein kinase erbB-2 (Homo sapiens, UniProt P04626); test: Navigating the Kinome. Panel member name: ERBB2; assay type: functional
[15] = molecular target: Serine/threonine-protein kinase Chk1 (Homo sapiens, UniProt O14757); assay type: functional;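 also: measured as one member of a kinome-wide kinase profiling panel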
Misshapen-like kinase 1 = Misshapen-like kinase 1 (Homo sapiens, UniProt Q8N4C8); assay type: functional;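 also: kinome panel screen with MINK as the panel member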
[16] = molecular target: Protein-tyrosine kinase 6 (Homo sapiens, UniProt Q13882); assay type: functional
Aurora kinase B = Aurora kinase B (Homo sapiens, UniProt Q96GD4); assay type: functional
[17] = molecular target: Vascular endothelial growth factor receptor 3 (Homo sapiens, UniProt P35916); assay type: functional;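 also: value from a kinome-wide profiling panel, with FLT4 as the panel member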
[18] = molecular target: Tyrosine-protein kinase Fyn (Homo sapiens, UniProt P06241); assay type: functional
[19] = molecular target: Cyclin-dependent kinase 8 (Homo sapiens, UniProt P49336); test: Navigating the Kinome. Panel member name: CDK8; assay type: functional
[20] = molecular target: Vascular endothelial growth factor receptor 1 (Homo sapiens, UniProt P17948); assay type: functional;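 also: measured within a kinome-wide profiling panel, FLT1 as the panel member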
[21] = molecular target: Tyrosine-protein kinase FRK (Homo sapiens, UniProt P42685); assay type: functional;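 also: FRK tested as one member of a kinome panel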

Cyclin-dependent kinase 8, sequence (P49336 whole entry): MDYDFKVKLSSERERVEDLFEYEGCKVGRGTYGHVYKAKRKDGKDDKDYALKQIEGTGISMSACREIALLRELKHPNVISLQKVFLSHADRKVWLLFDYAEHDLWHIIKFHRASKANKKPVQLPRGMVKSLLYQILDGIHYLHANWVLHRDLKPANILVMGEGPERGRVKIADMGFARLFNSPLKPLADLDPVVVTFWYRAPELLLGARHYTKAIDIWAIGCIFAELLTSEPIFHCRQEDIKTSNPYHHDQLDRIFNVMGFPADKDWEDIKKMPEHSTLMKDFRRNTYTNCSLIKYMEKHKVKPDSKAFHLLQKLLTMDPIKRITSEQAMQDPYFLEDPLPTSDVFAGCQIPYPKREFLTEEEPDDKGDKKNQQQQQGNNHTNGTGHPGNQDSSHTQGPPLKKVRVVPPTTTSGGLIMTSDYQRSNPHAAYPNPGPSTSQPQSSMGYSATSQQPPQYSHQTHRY
Serine/threonine-protein kinase 17A, sequence (Q9UEE5 whole entry): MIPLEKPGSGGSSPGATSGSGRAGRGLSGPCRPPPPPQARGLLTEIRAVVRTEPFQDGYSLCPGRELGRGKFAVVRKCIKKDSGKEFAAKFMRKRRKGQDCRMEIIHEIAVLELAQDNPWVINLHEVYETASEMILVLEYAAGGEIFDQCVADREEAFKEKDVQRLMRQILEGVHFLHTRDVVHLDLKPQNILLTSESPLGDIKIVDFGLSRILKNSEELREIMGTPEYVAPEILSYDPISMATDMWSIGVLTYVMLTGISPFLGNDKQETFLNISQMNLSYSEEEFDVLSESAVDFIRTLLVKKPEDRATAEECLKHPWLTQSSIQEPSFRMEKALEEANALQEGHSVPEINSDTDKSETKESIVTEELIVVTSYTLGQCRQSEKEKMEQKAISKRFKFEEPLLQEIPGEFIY
ORF 73, sequence (O40947 whole entry): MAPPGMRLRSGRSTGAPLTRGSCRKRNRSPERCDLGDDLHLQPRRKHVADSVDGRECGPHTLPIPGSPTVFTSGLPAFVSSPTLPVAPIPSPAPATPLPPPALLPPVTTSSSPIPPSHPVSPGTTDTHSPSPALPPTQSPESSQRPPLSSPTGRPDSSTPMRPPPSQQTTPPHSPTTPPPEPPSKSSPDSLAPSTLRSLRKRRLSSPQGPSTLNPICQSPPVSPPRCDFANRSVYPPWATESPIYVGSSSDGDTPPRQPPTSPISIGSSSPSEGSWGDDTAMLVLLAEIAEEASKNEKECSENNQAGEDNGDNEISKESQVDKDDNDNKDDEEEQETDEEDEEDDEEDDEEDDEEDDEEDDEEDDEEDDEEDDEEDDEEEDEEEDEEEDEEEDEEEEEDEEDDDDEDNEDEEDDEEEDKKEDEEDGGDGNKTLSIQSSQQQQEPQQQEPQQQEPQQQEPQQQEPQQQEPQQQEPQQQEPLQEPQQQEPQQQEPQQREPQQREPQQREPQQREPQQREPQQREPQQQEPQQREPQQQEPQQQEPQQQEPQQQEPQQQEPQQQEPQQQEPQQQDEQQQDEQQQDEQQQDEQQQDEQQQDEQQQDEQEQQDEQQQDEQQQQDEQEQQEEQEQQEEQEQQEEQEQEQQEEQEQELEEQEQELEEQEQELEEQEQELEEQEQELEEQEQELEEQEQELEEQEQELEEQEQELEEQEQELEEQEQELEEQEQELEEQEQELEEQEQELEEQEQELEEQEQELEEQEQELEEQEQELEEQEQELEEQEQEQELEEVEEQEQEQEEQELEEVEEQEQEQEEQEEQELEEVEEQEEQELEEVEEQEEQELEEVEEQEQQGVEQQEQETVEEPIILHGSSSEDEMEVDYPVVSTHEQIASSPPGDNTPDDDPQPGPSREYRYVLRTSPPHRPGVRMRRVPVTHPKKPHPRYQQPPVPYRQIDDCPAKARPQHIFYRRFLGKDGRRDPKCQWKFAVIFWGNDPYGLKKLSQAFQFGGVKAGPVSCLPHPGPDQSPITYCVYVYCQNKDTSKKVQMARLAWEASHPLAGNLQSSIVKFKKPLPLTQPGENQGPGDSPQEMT
Misshapen-like kinase 1, sequence (Q8N4C8 whole entry): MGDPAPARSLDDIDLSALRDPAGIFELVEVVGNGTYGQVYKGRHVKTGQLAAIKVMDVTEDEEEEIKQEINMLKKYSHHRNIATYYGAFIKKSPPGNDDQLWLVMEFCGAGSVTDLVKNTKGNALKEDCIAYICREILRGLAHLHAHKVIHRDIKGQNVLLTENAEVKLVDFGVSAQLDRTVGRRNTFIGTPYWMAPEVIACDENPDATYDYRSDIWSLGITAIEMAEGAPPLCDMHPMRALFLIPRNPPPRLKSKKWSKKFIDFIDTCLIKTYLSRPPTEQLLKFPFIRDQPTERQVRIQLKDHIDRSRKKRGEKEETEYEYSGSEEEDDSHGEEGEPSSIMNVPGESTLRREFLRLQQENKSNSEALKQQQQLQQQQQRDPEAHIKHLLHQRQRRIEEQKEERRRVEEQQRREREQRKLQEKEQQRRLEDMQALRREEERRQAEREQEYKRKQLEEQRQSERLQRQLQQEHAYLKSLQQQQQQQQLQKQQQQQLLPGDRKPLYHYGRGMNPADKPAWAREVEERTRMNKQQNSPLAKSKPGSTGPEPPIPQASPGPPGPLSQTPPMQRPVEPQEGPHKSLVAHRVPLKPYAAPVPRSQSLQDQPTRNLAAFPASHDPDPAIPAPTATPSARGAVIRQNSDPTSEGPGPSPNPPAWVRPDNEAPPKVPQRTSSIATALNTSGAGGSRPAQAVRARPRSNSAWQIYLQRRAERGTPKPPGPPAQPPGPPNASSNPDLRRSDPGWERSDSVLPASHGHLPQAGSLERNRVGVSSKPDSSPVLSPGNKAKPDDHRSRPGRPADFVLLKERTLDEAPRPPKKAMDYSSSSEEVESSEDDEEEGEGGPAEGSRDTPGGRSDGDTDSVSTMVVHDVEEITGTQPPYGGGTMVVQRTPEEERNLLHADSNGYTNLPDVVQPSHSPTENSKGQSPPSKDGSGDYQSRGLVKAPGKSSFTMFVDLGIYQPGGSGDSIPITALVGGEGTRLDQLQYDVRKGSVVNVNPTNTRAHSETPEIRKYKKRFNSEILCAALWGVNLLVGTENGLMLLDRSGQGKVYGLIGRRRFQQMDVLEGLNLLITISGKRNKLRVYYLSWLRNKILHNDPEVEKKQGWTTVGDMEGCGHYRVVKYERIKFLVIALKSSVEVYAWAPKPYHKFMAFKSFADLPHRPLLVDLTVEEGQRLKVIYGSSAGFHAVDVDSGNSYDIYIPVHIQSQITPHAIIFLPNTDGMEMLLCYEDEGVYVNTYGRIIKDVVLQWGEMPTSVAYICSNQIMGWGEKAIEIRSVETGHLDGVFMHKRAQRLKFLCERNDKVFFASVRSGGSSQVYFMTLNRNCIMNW
SRSF protein kinase 1, sequence (Q96SB4 whole entry): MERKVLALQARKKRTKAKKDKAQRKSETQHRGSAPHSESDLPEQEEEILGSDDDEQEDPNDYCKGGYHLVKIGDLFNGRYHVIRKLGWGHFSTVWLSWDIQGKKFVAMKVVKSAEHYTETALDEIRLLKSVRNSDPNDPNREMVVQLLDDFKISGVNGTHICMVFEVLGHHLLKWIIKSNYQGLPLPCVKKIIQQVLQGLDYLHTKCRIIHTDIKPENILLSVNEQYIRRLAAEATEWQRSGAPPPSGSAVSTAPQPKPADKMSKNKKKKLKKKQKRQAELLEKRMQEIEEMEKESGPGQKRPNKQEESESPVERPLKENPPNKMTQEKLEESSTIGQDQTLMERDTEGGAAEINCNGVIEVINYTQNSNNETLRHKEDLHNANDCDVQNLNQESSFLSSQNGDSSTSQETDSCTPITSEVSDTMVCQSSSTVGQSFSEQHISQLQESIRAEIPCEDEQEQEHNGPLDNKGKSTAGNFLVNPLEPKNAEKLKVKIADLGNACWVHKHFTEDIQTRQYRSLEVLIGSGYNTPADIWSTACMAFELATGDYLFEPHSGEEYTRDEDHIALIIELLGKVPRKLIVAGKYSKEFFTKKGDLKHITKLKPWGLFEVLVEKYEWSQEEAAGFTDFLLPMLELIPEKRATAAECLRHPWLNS
Aurora kinase B, sequence (Q96GD4 whole entry): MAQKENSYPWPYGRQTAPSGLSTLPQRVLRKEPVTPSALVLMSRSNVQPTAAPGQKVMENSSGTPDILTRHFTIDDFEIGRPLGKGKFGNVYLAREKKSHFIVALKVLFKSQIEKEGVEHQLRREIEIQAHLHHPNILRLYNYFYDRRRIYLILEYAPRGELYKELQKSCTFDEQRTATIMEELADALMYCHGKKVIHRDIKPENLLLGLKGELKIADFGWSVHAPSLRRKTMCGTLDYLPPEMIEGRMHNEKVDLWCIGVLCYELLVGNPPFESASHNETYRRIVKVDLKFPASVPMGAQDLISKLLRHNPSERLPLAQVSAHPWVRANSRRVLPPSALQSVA

SMILES: O=C1C=C(N2CCCCC2)c2ccccc2C1=O
AC50 (INS1): 4.98 µM (active)

SMILES: O=C(O)C1Nc2c(O)cc(Cl)c([N+](=O)[O-])c2C2C=CCC12 (stereo not given)
EC50 [1]: 19.1 µM (inconclusive) | AC50 (ORF 73): 5.02 µM (active) | IC50 [2]: 35.4 µM (active)

SMILES: O=C(CCc1ccccc1)NNc1cc(N2CCCCC2)nc(N2CCCCC2)n1
IC50 (Caspase-3): > 99 µM (inactive)

SMILES: Oc1ccc(N=Nc2c(O)ccc3ccccc23)cc1
IC50 (Exodeoxyribonuclease V): > 118 µM (inactive)

Ki [3]: 1.26 µM (active) | Ki [4]: 501 nM (active) | Ki (SRSF protein kinase 1): > 5.01 µM (inactive) | Ki [5]: > 1.58 µM (inactive) | Ki [6]: 5.01 µM (active) | Ki [7]: 794 nM (active) | Ki [8]: > 1.58 µM (inactive) | Ki [9]: 316 nM (active) | Ki [10]: 631 nM (active) | Ki [11]: 251 nM (active) | Ki [12]: > 2.51 µM (inactive) | Ki (Insulin receptor): 3.16 µM (active) | Ki [13]: 6.31 nM (active) | Ki [14]: > 1.58 µM (inactive) | Ki [15]: 6.31 µM (active) | Ki (Misshapen-like kinase 1): 25.1 nM (active) | Ki [16]: > 2.51 µM (inactive) | Ki (Aurora kinase B): 200 nM (active) | Ki [17]: 2.51 µM (active) | Ki [18]: > 794 nM (inactive) | Ki [19]: 1.58 nM (active) | pKi [19]: 8.8 | Ki [20]: > 398 nM (inactive) | Ki [21]: > 2.51 µM (inactive)
SMILES: Cc1n[nH]c2ccc(-c3cncc(OCC(N)Cc4cccc(Cl)c4)c3)cc12 (stereo not given)
